Square brackets hold non-standard residues; d marks the D form. Peptide text beside a SMILES is read from it. dTrp(2-Me) = Cc1[nH]c2ccccc2c1C[C@@H](N)C(=O)O
Columns and labels:
[1] = system: human subcutaneous adipocytes; experiment: Transport of green fluorescent labeled fatty acids into primary cultures of human subcutaneous adipocytes (fluorescence microscopy); assay type: cell-based; settings: green fluorescent probe, primary culture
Description: In vitro validation of AdipomiRs targeted delivery of functional miRNAs: The ability of the AdipomiRs to target and deliver ss-miRNA analogs to adipocytes was evaluated in a model of primary cultures of human subcutaneous adipocytes. The first experimental step was to confirm that fatty acids are efficiently transported into human mature adipocytes, using the inventor's in vitro protocol of primary cultures of human subcutaneous adipocytes. To test this, fatty acids such as palmitic and […] acids were labeled with a green fluorescent probe and incubated with cultured adipocytes.

[2] = system: human subcutaneous adipocytes; experiment: Transport of green fluorescent Hexarelin into primary cultures of human subcutaneous adipocytes (fluorescence microscopy); assay type: cell-based; settings: green fluorescent probe, primary culture
Text: In vitro validation of HexamiRs targeted delivery of functional miRNAs: The ability of the HexamiRs to target and deliver ss-miRNA analogs to adipocytes will evaluated in a model of primary cultures of human subcutaneous adipocytes. The first experimental step was to confirm that Hexarelin is efficiently transported into human mature adipocytes, using an in vitro protocol of primary cultures of human subcutaneous adipocytes. To test this, hexarelin labeled with a green fluorescent probe was incubated with cultured adipocytes.

[3] = system: MKR insulin-resistant mice; settings: cited from earlier work

| Structure (SMILES) | transport of labeled fatty acids by human adipocytes [1] | transport of labeled hexarelin into the cytoplasm of human adipocytes [2] | glucose and insulin intolerance [3] | plasma and liver triglycerides [3] |
| --- | --- | --- | --- | --- |
| CCCCCCCCCCCCCCCC(=O)O [palmitic acid, Palmitic Acid] | very efficiently transported | – | – | – |
| Cc1[nH]c2ccccc2c1C[C@@H](NC(=O)[C@@H](N)Cc1cnc[nH]1)C(=O)N[C@@H](C)C(=O)N[C@@H](Cc1c[nH]c2ccccc12)C(=O)N[C@H](Cc1ccccc1)C(=O)N[C@@H](CCCCN)C(N)=O [Hexarelin, His-D-2-Me-Trp-Ala-Trp-D-Phe-Lys-NH2] (H-H[dTrp(2-Me)]AW[dF]K-NH2) | – | very efficiently transported | significantly improved | decreased |

Reference: US11690804B2, “Targeted delivery of therapeutic agents to human adipocytes” (AptamiR Therapeutics, Inc., priority 2018, dated 2023)
